Assay results reported in BindingDB's records for doi:10.1021/jm00073a015 (Institute, 1993).

Legend:
[1] = Binding affinity against kappa opioid receptor from calf frontal cortex.
[2] = Binding affinity against delta opioid receptor from calf frontal cortex.
Mu-type opioid receptor = Mu-type opioid receptor (Bos taurus, UniProt P79350); assay: ChEBML_136067
From the text: Binding affinity against mu opioid receptor from calf frontal cortex.

Sequence of Mu-type opioid receptor (P79350 whole entry): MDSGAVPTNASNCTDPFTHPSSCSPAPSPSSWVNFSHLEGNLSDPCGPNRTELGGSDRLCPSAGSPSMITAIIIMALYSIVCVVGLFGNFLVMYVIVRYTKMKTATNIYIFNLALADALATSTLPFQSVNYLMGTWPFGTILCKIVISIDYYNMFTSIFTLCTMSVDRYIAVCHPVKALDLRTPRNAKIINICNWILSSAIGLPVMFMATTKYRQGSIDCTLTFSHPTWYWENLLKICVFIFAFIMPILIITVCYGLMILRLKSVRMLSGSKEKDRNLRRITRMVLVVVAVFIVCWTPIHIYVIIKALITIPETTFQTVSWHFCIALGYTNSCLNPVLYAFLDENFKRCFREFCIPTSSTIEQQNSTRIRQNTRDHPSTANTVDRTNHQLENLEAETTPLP

| SMILES | IC50 [1] [nM] | IC50 [2] [nM] | IC50 (Mu-type opioid receptor) [nM] |
| --- | --- | --- | --- |
| CN1CC[C@]23c4c5ccc(O)c4O[C@H]2C(=O)CC[C@@]3(NC(=O)/C=C/c2ccc([N+](=O)[O-])cc2)[C@H]1C5 | 6.6 | 3.5 | – |
| C[C@@]12Oc3c(O)ccc4c3C13CCN(CC1CC1)C(C4)[C@]3(NC(=O)CCc1ccc([N+](=O)[O-])cc1)CCC2=O (stereo partly drawn) [1N-[4-cyclopropylmethyl-10-hydroxy-13-methyl-14-oxo-(13R,17S)-12-oxa-4-azapentacyclo[9.6.1.01,13.05,17.07,18]octadeca-7(18),8,10-trien-17-yl]-3-(4-nitrophenyl)propanamide] | 162 | – | – |
| C[C@@]12Oc3c(O)ccc4c3C13CCN(CC1CC1)C(C4)[C@]3(NC(=O)/C=C/c1ccc([N+](=O)[O-])cc1)CCC2=O (stereo partly drawn) [1N-[4-cyclopropylmethyl-10-hydroxy-13-methyl-14-oxo-(13R,17S)-12-oxa-4-azapentacyclo[9.6.1.01,13.05,17.07,18]octadeca-7(18),8,10-trien-17-yl]-4-(4-nitrophenyl)-(Z)-2-butenamide] | 126 | 11 | – |
| O=C(C=Cc1ccc([N+](=O)[O-])cc1)N[C@@]12C=CC(=O)[C@@H]3Oc4c(O)ccc5c4C31CCN(CC1CC1)C2C5 (stereo partly drawn) [1N-[4-cyclopropylmethyl-10-hydroxy-14-oxo-(13R,17S)-12-oxa-4-azapentacyclo[9.6.1.01,13.05,17.07,18]octadeca-7(18),8,10,15-tetraen-17-yl]-4-(4-nitrophenyl)-(Z)-2-butenamide] | 11 | 106 | – |
| O=C(/C=C/c1ccc([N+](=O)[O-])cc1)N[C@@]12CCC(=O)[C@@H]3Oc4c(O)ccc5c4[C@@]31CCN(CC1CC1)[C@@H]2C5 [1N-[4-cyclopropylmethyl-10-hydroxy-14-oxo-(13R,17S)-12-oxa-4-azapentacyclo[9.6.1.01,13.05,17.07,18]octadeca-7(18),8,10-trien-17-yl]-4-(4-nitrophenyl)-(Z)-2-butenamide] | 12 | 21 | – |
| COc1ccc2c3c1O[C@H]1C(=O)C=C[C@@]4(NC(=O)C=Cc5ccc([N+](=O)[O-])cc5)C(C2)N(CC2CC2)CCC314 (stereo partly drawn) [1N-[4-cyclopropylmethyl-10-methoxy-14-oxo-(13R,17S)-12-oxa-4-azapentacyclo[9.6.1.01,13.05,17.07,18]octadeca-7(18),8,10,15-tetraen-17-yl]-4-(4-nitrophenyl)-(Z)-2-butenamide] | 5 | 54 | 1.5 |
| CN1CCC23c4c5ccc(O)c4O[C@@]2(C)C(=O)CC[C@@]3(NC(=O)/C=C/c2ccc([N+](=O)[O-])cc2)C1C5 (stereo partly drawn) [1N-[10-hydroxy-4,13-dimethyl-14-oxo-(13R,17S)-12-oxa-4-azapentacyclo[9.6.1.01,13.05,17.07,18]octadeca-7(18),8,10-trien-17-yl]-4-(4-nitrophenyl)-(Z)-2-butenamide] | 116 | 51 | – |
| COc1ccc2c3c1O[C@H]1C(=O)C=C[C@@]4(NC(=O)C=Cc5ccc([N+](=O)[O-])cc5)C(C2)N(C)CCC314 (stereo partly drawn) [1N-[10-methoxy-4-methyl-14-oxo-(13R,17S)-12-oxa-4-azapentacyclo[9.6.1.01,13.05,17.07,18]octadeca-7(18),8,10,15-tetraen-17-yl]-4-(4-nitrophenyl)-(Z)-2-butenamide] | 68 | 46 | – |
